{"source": "patent US4622244A", "about": "“Process for preparation of microcapsules” (The Washington University, priority 1984, dated 1986)", "key": {"[1]": {"assay": "Mouse tail-flick test, morphine challenge", "format": "in vivo", "method": "Microcapsules (177-295 microns in size) so prepared were evaluated by the mouse tail-flick test procedure. Mice (groups of 6) were the test animals. The morphine challenge dose was 10 mg./kg. mouse; test animal response was measured 20 min. after morphine injection. As will be seen, the microcapsules caused more than 50% antagonism 28 days after injection both in the tests in which peanut oil was used as the suspending medium and in the tests where peanut oil plus aluminum monostearate was used as the suspending medium.\n*All injections (1 cc/100 g mouse) given through 18 gauge needle; Morphin\nchallenge dose: 10 mg/kg mouse; Capsule size: 177-295μ; Active content\nof capsules initially: 67 wt. %.\nSimilar studies were run with microcapsules (105 to 177 microns in size) of naltrexone free base (NFB) prepared in the same manner as the naltrexone pamoate microcapsules.\nchallenge dose: 10 mg/kg mouse; Capsule size: 105-177μ; Active content"}, "[2]": {"assay": "Solubility of cyclazocine in solvents (equilibration, solids content after solvent evaporation)", "format": "physicochemical", "method": "For example, taking cyclazocine as the solid, injectable drug material, Table I summarizes the solubility data obtained for this drug in a number of solvents.\nAfter equilibration (20-30 min), one ml. of solution was transferred to a tared weighing dish and the solids content determined by solvent evaporation.\nIn particular, the aromatic solvents have little tendency to dissolve it at room temperature."}, "[3]": {"assay": "In vitro release/dissolution by end-over-end tumbling in phosphate buffer at 37° C.", "format": "physicochemical"}}, "note": "Like-named read-outs stand apart in the source and are kept apart here."}
{"compound": "O=C1CC[C@@]2(O)[C@H]3Cc4ccc(O)c5c4[C@@]2(CCN3CC2CC2)[C@H]1O5", "note": "[NP]", "values": [{"measurement": "% Antagonism", "setting": "[1]; 7 days, 40 mg unencapsulated NP/kg mouse, peanut oil", "value": 66.1, "unit": "%"}, {"measurement": "% Antagonism", "setting": "[1]; 7 days, 40 mg unencapsulated NP/kg mouse, peanut oil + 2 wt. % AIMS", "value": 88.3, "unit": "%"}, {"measurement": "% Antagonism", "setting": "[1]; 14 days, 40 mg unencapsulated NP/kg mouse, peanut oil", "value": 59.1, "unit": "%"}, {"measurement": "% Antagonism", "setting": "[1]; 14 days, 40 mg unencapsulated NP/kg mouse, peanut oil + 2 wt. % AIMS", "value": 52.9, "unit": "%"}, {"measurement": "% Antagonism", "setting": "[1]; 21 days, 40 mg unencapsulated NP/kg mouse, peanut oil", "value": 12.9, "unit": "%"}, {"measurement": "% Antagonism", "setting": "[1]; 21 days, 40 mg unencapsulated NP/kg mouse, peanut oil + 2 wt. % AIMS", "value": 11.2, "unit": "%"}, {"measurement": "% Antagonism", "setting": "[1]; 28 days, 40 mg unencapsulated NP/kg mouse, peanut oil", "value": 13.9, "unit": "%"}, {"measurement": "% Antagonism", "setting": "[1]; 28 days, 40 mg unencapsulated NP/kg mouse, peanut oil + 2 wt. % AIMS", "value": 18.4, "unit": "%"}]}
{"compound": "O=C1CC[C@@]2(O)[C@H]3Cc4ccc(O)c5c4[C@@]2(CCN3CC2CC2)[C@H]1O5", "note": "[NFB]", "values": [{"measurement": "% Antagonism", "setting": "[1]; 7 days, 40 mg unencapsulated NFB/kg mouse, peanut oil", "value": 80.0, "unit": "%"}, {"measurement": "% Antagonism", "setting": "[1]; 7 days, 40 mg unencapsulated NFB/kg mouse, peanut oil + 2 wt. % AIMS", "value": 54.1, "unit": "%"}, {"measurement": "% Antagonism", "setting": "[1]; 10 days, 40 mg unencapsulated NFB/kg mouse, peanut oil", "value": 39.7, "unit": "%"}, {"measurement": "% Antagonism", "setting": "[1]; 10 days, 40 mg unencapsulated NFB/kg mouse, peanut oil + 2 wt. % AIMS", "value": 69.5, "unit": "%"}, {"measurement": "% Antagonism", "setting": "[1]; 14 days, 40 mg unencapsulated NFB/kg mouse, peanut oil", "value": 21.8, "unit": "%"}, {"measurement": "% Antagonism", "setting": "[1]; 14 days, 40 mg unencapsulated NFB/kg mouse, peanut oil + 2 wt. % AIMS", "value": 48.0, "unit": "%"}, {"measurement": "% Antagonism", "setting": "[1]; 21 days, 40 mg unencapsulated NFB/kg mouse, peanut oil", "value": 8.1, "unit": "%"}, {"measurement": "% Antagonism", "setting": "[1]; 21 days, 40 mg unencapsulated NFB/kg mouse, peanut oil + 2 wt. % AIMS", "value": 15.2, "unit": "%"}]}
{"compound": "C[C@H]1[C@H]2Cc3ccc(O)cc3[C@]1(C)CCN2CC1CC1", "note": "[cyclazocine, 3-(cyclopropylmethyl)-1,2,3,4,-5,6-hexahydro-6,11-dimethyl-2,6-methano-3-benzazocin-8-ol]", "values": [{"measurement": "solubility", "setting": "[2]; 25 acetone/75 ethanol (v/v), organic solvent or mixture, 25 acetone/75 ethanol (V/V), 25° C., read-out: Solubility", "value": 4540, "unit": "µg/mL"}, {"measurement": "solubility", "setting": "[2]; 50 acetone/50 ethanol (v/v), organic solvent or mixture, 50 acetone/50 ethanol (V/V), 25° C., read-out: Solubility", "value": 4700, "unit": "µg/mL"}, {"measurement": "solubility", "setting": "[2]; 75 acetone/25 ethanol (v/v), organic solvent or mixture, 75 acetone/25 ethanol (V/V), 25° C., read-out: Solubility", "value": 4740, "unit": "µg/mL"}, {"measurement": "solubility", "setting": "[2]; acetone, organic solvent or mixture, acetone, 25° C., read-out: Solubility", "value": 5100, "unit": "µg/mL"}, {"measurement": "solubility", "setting": "[2]; benzene, organic solvent or mixture, benzene, 25° C., read-out: Solubility", "value": 1400, "unit": "µg/mL"}, {"measurement": "solubility", "setting": "[2]; benzene, organic solvent or mixture, benzene, 50° C., read-out: Solubility", "value": 2400, "unit": "µg/mL"}, {"measurement": "solubility", "setting": "[2]; chloroform, organic solvent or mixture, chloroform, 25° C., read-out: Solubility", "value": 7600, "unit": "µg/mL"}, {"measurement": "solubility", "setting": "[2]; cyclohexane, 80° C.", "value": "Insoluble"}, {"measurement": "solubility", "setting": "[2]; decahydronaphthalene, organic solvent or mixture, decahydronaphthalene, 25° C., read-out: Solubility", "value": 1700, "unit": "µg/mL"}, {"measurement": "solubility", "setting": "[2]; decahydronaphthalene, organic solvent or mixture, decahydronaphthalene, 130° C., read-out: Solubility", "value": 3400, "unit": "µg/mL"}, {"measurement": "solubility", "setting": "[2]; ethanol, organic solvent or mixture, ethanol, 25° C., read-out: Solubility", "value": 6640, "unit": "µg/mL"}, {"measurement": "solubility", "setting": "[2]; ethanol, organic solvent or mixture, ethanol, 73° C., read-out: Solubility", "value": 52000, "unit": "µg/mL"}, {"measurement": "solubility", "setting": "[2]; ethyl acetate, organic solvent or mixture, ethyl acetate, 4° C., read-out: Solubility", "value": 2600, "unit": "µg/mL"}, {"measurement": "solubility", "setting": "[2]; ethyl acetate, organic solvent or mixture, ethyl acetate, 25° C., read-out: Solubility", "value": 6300, "unit": "µg/mL"}, {"measurement": "solubility", "setting": "[2]; ethyl acetate, organic solvent or mixture, ethyl acetate, 77° C., read-out: Solubility", "value": 45000, "unit": "µg/mL"}, {"measurement": "solubility", "setting": "[2]; isopropanol, organic solvent or mixture, isopropanol, 25° C., read-out: Solubility", "value": 26800, "unit": "µg/mL"}, {"measurement": "solubility", "setting": "[2]; isopropanol, organic solvent or mixture, isopropanol, 80° C., read-out: Solubility", "value": 26800, "unit": "µg/mL"}, {"measurement": "solubility", "setting": "[2]; methanol, organic solvent or mixture, methanol, 25° C., read-out: Solubility", "value": 18400, "unit": "µg/mL"}, {"measurement": "solubility", "setting": "[2]; methanol, organic solvent or mixture, methanol, 63° C., read-out: Solubility", "value": 33200, "unit": "µg/mL"}, {"measurement": "solubility", "setting": "[2]; methyl ethyl ketone, organic solvent or mixture, methyl ethyl ketone, 4° C., read-out: Solubility", "value": 9100, "unit": "µg/mL"}, {"measurement": "solubility", "setting": "[2]; methyl ethyl ketone, organic solvent or mixture, methyl ethyl ketone, 25° C., read-out: Solubility", "value": 16000, "unit": "µg/mL"}, {"measurement": "solubility", "setting": "[2]; methyl ethyl ketone, organic solvent or mixture, methyl ethyl ketone, 79° C., read-out: Solubility", "value": 59800, "unit": "µg/mL"}, {"measurement": "solubility", "setting": "[2]; n-butanol, organic solvent or mixture, n-butanol, 4° C., read-out: Solubility", "value": 4500, "unit": "µg/mL"}, {"measurement": "solubility", "setting": "[2]; n-butanol, organic solvent or mixture, n-butanol, 25° C., read-out: Solubility", "value": 15000, "unit": "µg/mL"}, {"measurement": "solubility", "setting": "[2]; n-butanol, organic solvent or mixture, n-butanol, 117° C., read-out: Solubility", "value": 215000, "unit": "µg/mL"}, {"measurement": "Solubility (in words)", "setting": "[2]; range of solvents, room temperature", "value": "relatively low solubility"}, {"measurement": "solubility", "setting": "[2]; toluene, organic solvent or mixture, toluene, 25° C., read-out: Solubility", "value": 1000, "unit": "µg/mL"}, {"measurement": "solubility", "setting": "[2]; toluene, organic solvent or mixture, toluene, 35° C., read-out: Solubility", "value": 1500, "unit": "µg/mL"}, {"measurement": "solubility", "setting": "[2]; toluene, organic solvent or mixture, toluene, 50° C., read-out: Solubility", "value": 4000, "unit": "µg/mL"}, {"measurement": "solubility", "setting": "[2]; toluene, organic solvent or mixture, toluene, 100° C., read-out: Solubility", "value": 15000, "unit": "µg/mL"}, {"measurement": "solubility", "setting": "[2]; xylene, organic solvent or mixture, xylene, 25° C., read-out: Solubility", "value": 1200, "unit": "µg/mL"}, {"measurement": "solubility", "setting": "[2]; xylene, organic solvent or mixture, xylene, 50° C., read-out: Solubility", "value": 1800, "unit": "µg/mL"}, {"measurement": "solubility", "setting": "[2]; xylene, organic solvent or mixture, xylene, 90° C., read-out: Solubility", "value": 17500, "unit": "µg/mL"}, {"measurement": "Complete dissolution time of unencapsulated drug", "setting": "[3]; buffer pH 7.4", "value": "≤ 15", "unit": "min"}, {"measurement": "Complete dissolution time of unencapsulated drug", "setting": "[3]; same buffer, pH 7.0", "value": "≤ 15", "unit": "min"}]}
